Results reported in US4569943A, “Physiologically active substance P-23924, its production and use” (Takeda Chemical Industries, Ltd., priority 1982, dated 1986).
pIC50: −log10 of the molar value.

Key:
[1] = molecular target: T1, Protocollagen prolyl hydroxylase (Gallus gallus, UniProt P16924); experiment: Protocollagen prolyl hydroxylase inhibiting activity (method of R. E. Rhoads, substrate (Pro-Pro-Gly)5.4H2O); type: biochemical, chick embryo; conditions: for inhibition at 12.5 µM: 12.5 μM compound, 100 μg enzyme; for pIC50: 100 μg (as protein) of partially purified enzyme preparation from chick embryo, read-out: Concentration of P-23924 required for a 50% inhibition
T1 construct: partially purified enzyme preparation derived from chick embryo; from tissue; host or cells: chick embryo (partially purified enzyme preparation)
T1 sequence (P16924 1-516): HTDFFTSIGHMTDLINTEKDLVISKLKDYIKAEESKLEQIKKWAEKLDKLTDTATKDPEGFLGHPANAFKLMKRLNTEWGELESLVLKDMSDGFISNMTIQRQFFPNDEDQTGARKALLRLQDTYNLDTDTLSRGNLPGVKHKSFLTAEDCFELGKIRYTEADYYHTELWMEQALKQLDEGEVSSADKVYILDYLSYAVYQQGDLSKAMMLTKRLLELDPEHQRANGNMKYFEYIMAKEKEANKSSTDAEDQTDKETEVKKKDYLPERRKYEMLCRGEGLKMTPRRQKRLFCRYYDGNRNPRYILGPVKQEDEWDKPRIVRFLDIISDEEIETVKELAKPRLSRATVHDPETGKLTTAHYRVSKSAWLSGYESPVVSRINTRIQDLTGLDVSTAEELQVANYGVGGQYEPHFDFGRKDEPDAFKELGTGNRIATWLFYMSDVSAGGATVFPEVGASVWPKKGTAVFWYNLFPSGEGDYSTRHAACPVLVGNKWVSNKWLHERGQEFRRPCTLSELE
T1 sequence (P09102 23-515 partner): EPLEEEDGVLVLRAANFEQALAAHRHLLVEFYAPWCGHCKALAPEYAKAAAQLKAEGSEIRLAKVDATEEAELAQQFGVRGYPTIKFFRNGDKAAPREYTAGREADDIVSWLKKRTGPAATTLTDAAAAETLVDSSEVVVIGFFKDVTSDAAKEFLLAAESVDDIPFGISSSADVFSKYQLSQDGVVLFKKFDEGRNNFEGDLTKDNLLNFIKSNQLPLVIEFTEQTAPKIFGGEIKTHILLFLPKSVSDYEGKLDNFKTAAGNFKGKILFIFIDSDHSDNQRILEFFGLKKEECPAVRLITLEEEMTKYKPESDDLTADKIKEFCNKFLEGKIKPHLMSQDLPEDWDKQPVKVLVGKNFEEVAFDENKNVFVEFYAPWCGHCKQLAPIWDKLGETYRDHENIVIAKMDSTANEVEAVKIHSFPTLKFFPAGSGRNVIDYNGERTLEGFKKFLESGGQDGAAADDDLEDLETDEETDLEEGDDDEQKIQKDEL
Description: (a) Protocollagen prolyl hydroxylase inhibiting activity: This inhibitory activity was assayed by the method of R. E. Rhoads [Methods in Enzymology XVII B, 306 (1971)] using a partially purified enzyme preparation derived from chick embryo in accordance with the methods of K. I. Kivirriko et al and J. Halme et al. [Journal of Biological Chemistry 242, 4007 (1967) and Biochimica et Biophysica Acta 198, 460 (1967)] and, as the substrate, (Pro-Pro-Gly)5.4H2 O [manufactured by Tanpakushitsu Kenkyu Shoreikai (Protein Research Foundation Society), Osaka, Japan]. The concentrations of P-23924 required for a 50% inhibition of 100 μg (as protein) of said partially purified enzyme preparation were as follows.
On the other hand, by a similar procedure as above, the protocollagen prolyl hydroxylase inhibiting activities on the compounds of P-23924 AR, BR, CR and DR are measured.

[2] = Solubility; type: physicochemical
[3] = molecular target: T1, Protocollagen prolyl hydroxylase; experiment: Protocollagen prolyl hydroxylase inhibiting activity (method of R. E. Rhoads, substrate (Pro-Pro-Gly)5.4H2O); type: biochemical, chick embryo; conditions: 3.13 μM compound, 20 μg enzyme
[4] = test system: collagen biosynthesis (uterus); experiment: Collagen biosynthesis suppressant activity in uterus of estradiol-17β treated rats (method of T. Ishimaru et al); type: in vivo, SD rats; conditions: for Body weight of rats / Collagen content of uterus / Total protein content of uterus: groups of 10; for % Inhibition: Non-collagenous protein: total protein content - collagen
Excerpt: (b) Collagen biosynthesis suppressant activity: In accordance with the method of T. Ishimaru et al [Biochemical Pharmacology 31, 915 (1982)], P-23924 was intraperitoneally administered to SD rats (females, 3 weeks old) once daily for 6 consecutive days and the collagen content and non-collagenous protein content of the uterus were compared with those of control animals. […] I | said tests, rats were used in groups of 10 individuals.

[5] = Acute toxicity [LD50] by the intraperitoneal route; conditions: rat, in vivo, ip, rats
Excerpt: The acute toxicity [LD50 ] values of P-23924 in rats by the intraperitoneal route are given below.

[6] = Description (acidity, fat solubility); type: physicochemical
[7] = in dimethylsulfoxide, pyridine, ethyl acetate, chloroform, dioxan
[8] = 1 mg/kg i.p. once daily 6 days + Estradiol-17β (5 μg), P < 0.05 (B: P < 0.02, C: P < 0.01)
[9] = 1 mg/kg i.p. once daily 6 days + Estradiol-17β (5 μg)
[10] = in acetone, chloroform, n-hexane and petroleum ether
[11] = in dimethyl sulfoxide, dimethylformamide, pyridine and 5% aqueous sodium hydrogen carbonate
[12] = in methanol, dioxane and acetic acid
[13] = in chloroform, n-hexane and petroleum ether
[14] = 50 mg/kg i.p. once daily 6 days + Estradiol-17β (5 μg)

| inhibition at 12.5 µM [1] [%] | Solubility [2, 7] | Solubility ([2]; in n-hexane, petroleum ether) | inhibition at 3.13 µM [3] [%] | Compound | Solubility ([2]; in water) | pIC50 [1] | % Inhibition: Collagen [4, 8] [%] | Body weight of rats [4, 9] [g] | Collagen content of uterus [4, 9] [mg] | Total protein content of uterus [4, 9] [mg] | % Inhibition: Non-collagenous protein [4, 9] [%] | LD50 [5] [mg/kg] | Solubility [2, 10] | Solubility [2, 11] | Solubility [2, 12] | Description [6] | further results |
| --- | --- | --- | --- | --- | --- | --- | --- | --- | --- | --- | --- | --- | --- | --- | --- | --- | --- |
| 26 | readily or easily soluble | slightly soluble or insoluble | 37 | COc1cc2c(c(O)c1C)C(=O)C(C)=CC2=O [P-23924 AR] | slightly soluble or insoluble |  |  |  |  |  |  |  |  |  |  |  |  |
| 22 | readily or easily soluble | slightly soluble or insoluble | 26 | COC1=C(C)C(=O)c2c(cc(OC)c(C)c2O)C1=O [P-23924 BR] | slightly soluble or insoluble |  |  |  |  |  |  |  |  |  |  |  |  |
| 33 | readily or easily soluble | slightly soluble or insoluble | 40 | COC1=CC(=O)c2c(cc(OC)c(C)c2O)C1=O [P-23924 CR] | slightly soluble or insoluble |  |  |  |  |  |  |  |  |  |  |  |  |
| 20 | readily or easily soluble | slightly soluble or insoluble | 33 | COC1=C(C)C(=O)c2c(cc(O)c(C)c2O)C1=O [P-23924 DR] | slightly soluble or insoluble |  |  |  |  |  |  |  |  |  |  |  |  |
|  |  |  |  | COc1cc2c(c(O)c1CSCC(NC(C)=O)C(=O)O)C(=O)C(C)=CC2=O (stereo not shown) [P-23924A] | slightly soluble or insoluble | 4.17 | 33 | 73 ± 3 | 2.53 ± 0.35 | 15.67 ± 1.63 | 10 | 100 to 200 | slightly soluble or insoluble | easily soluble | soluble | acidic and fat-soluble |  |
|  |  |  |  | COC1=C(C)C(=O)c2c(cc(OC)c(CSCC(NC(C)=O)C(=O)O)c2O)C1=O (stereo not shown) [P-23924B] | slightly soluble or insoluble | 4.02 | 46 | 70 ± 5 | 2.37 ± 0.43 |  | 19 | 50 to 100 | slightly soluble or insoluble | easily soluble | soluble | acidic and fat-soluble |  |
|  |  |  |  | COC1=CC(=O)c2c(cc(OC)c(CSCC(NC(C)=O)C(=O)O)c2O)C1=O (stereo not shown) [P-23924C] | slightly soluble or insoluble | 4.24 | 61 | 73 ± 6 | 2.19 ± 0.49 | 14.01 ± 1.51 | 30 | 100 to 200 |  | easily soluble |  | acidic and fat-soluble | Solubility [2, 13]: slightly soluble or insoluble; Solubility ([2]; in methanol, dioxane, acetone and acetic acid): soluble |
|  |  |  |  | COC1=C(C)C(=O)c2c(cc(O)c(CSCC(NC(C)=O)C(=O)O)c2O)C1=O (stereo not shown) [P-23924D] | slightly soluble or insoluble | 3.57 |  |  |  |  |  | > 400 | slightly soluble or insoluble | easily soluble | soluble | acidic and fat-soluble | % Inhibition: Collagen ([4]; 50 mg/kg i.p. once daily 6 days + Estradiol-17β (5 μg), P < 0.05): 32%; Body weight of rats [4, 14]: 72 ± 3 g; Collagen content of uterus [4, 14]: 2.55 ± 0.30 mg; Total protein content of uterus [4, 14]: 15.63 ± 1.43 mg; % Inhibition: Non-collagenous protein [4, 14]: 11% |
|  |  |  |  | COc1cc2c(c(O)c1CSCC(NC(C)=O)C(=O)O)C(=O)C(CO)=CC2=O (stereo not shown) [P-23924E] | slightly soluble or insoluble | 4.68 | 34 | 72 ± 4 | 2.52 ± 0.36 | 15.73 ± 1.59 | 9 | ~50 |  |  |  | acidic and fat-soluble | Solubility [2, 13]: slightly soluble or insoluble; Solubility ([2]; in dimethyl sulfoxide, dimethylformamide, pyridine, 5% aqueous sodium hydrogen carbonate and methanol): easily soluble; Solubility ([2]; in dioxane and acetic acid): soluble |
|  |  |  |  | COC1=C(CO)C(=O)c2c(cc(OC)c(CSCC(NC(C)=O)C(=O)O)c2O)C1=O (stereo not shown) [P-23924F] | slightly soluble or insoluble | 4.68 | 38 | 71 ± 3 | 2.47 ± 0.57 | 15.20 ± 1.53 | 15 | 50 to 100 | slightly soluble or insoluble | easily soluble | soluble | acidic and fat-soluble |  |
